Entries after “also recorded” stand apart in the source; their conditions may differ.
Key:
[1] = tested on: H3K27me3; conditions: cited from earlier work
[2] = molecular target: EZH2 (Homo sapiens, UniProt Q15910); conditions: read-out: EZH2 Ki^app; cited from earlier work
[3] = tested on: SKBR3 cells; assay: TSA on SKBR3 drug tolerant cells (radiotherapy or lapatinib); format: cell-based; conditions: SKBR3, 2.5 Gy and 10 Gy, 25 nM TSA
Protocol: FIG. 16A, FIG. 16B and FIG. 16C | DTPs in a variety of models display increased sensitivity to HDAC inhibitors. (A) SKBR3 treated with 2.5 Gy in media alone or presence of 25 nM of the HDAC inhibitor TSA. (B) SKBR3 treated with 10 Gy in media alone or presence of 25 nM of the HDAC inhibitor TSA. (C) SKBR3 treated with 1 μM Lapatinib in media alone or presence of 25 nM of the HDAC inhibitor TSA.
The role of histone deacetylases was further test in additional models to elucidate their role in drug tolerance. The class I and II HDAC inhibitor TSA was tested in SKBR3 cells in combination with radiotherapy at 2.5 Gy and 10 Gy.

[4] = tested on: PC9 xenografts; assay: PC9 xenograft tumor study; format: in vivo; conditions: nude mice
Protocol: FIG. 18 | Effect of HDAC Inhibition using TSA (0.5 mg/kg) on erlotinib response in PC9 xenografts.
PC9 cells were cultured in growth media (RPMI 1640, 10% heat-inactivated fetal calf serum, 2 mM L-glutamine) to 80% confluency and then trypsinized, washed once with PBS, and resuspended in either Hank's Balanced Salt Solution (HBSS) or a 1:1 mixture of HBSS with matrigel [growth factor reduced; catalog #356231 (BD Biosciences, West Grove, Pa.)] to a final concentration of 5×10^7 cells/ml. Each xenograft tumor model was established using 5×10^6 cells (100 μL) inoculated subcutaneously (s.c.) in the rear right flank of immunocompromised mice. PC-9 and PC-9-GFP cells were implanted in HBSS with matrigel in nude (nu/nu) mice (Charles River Laboratories, Hollister, Calif.). When tumor volumes reach approximately 100-200 mm^3, mice were separated into groups of animals with similarly sized tumors, and treatment was initiated the day after grouping. Mice were dosed for 5 days a week (QD) oral gavage (PO) with erlotinib (50 mg/kg in 7.5% Captisol for first 4 doses then lowered to 35 mg/kg in 7.5% Captisol) and/or TSA (0.5 mg/kg) with appropriate vehicle control. […]

[5] = tested on: H3K27me3 in PC9 DTPs; assay: Histone H3K27me3 Western blot in PC9 DTPs treated with erlotinib; format: cell-based, human; conditions: GSK126 0.1, 0.5, 2.5 μM, EPZ-6438 0.05, 0.1, 0.5, 1, 1.5 μM, erlotinib 1 μM
Protocol: FIG. 20A, FIG. 20B, FIG. 20C and FIG. 20D | EZH2 inhibitors (GSK126) disrupt the drug-tolerant state. (A) Increase in histone H3K27me^3 in PC9 DTPs treated with erlotinib is inhibited by EZH2 small molecule inhibitor (GSK126) at 0.1, 0.5, and 2.5 μM as shown by Western blot. (B) nuc-red PC9 cells were treated with DMSO/erlotinib or GSK126/erlotinib at 0.1, 0.5, or 2.5 μM (dark grey bar) or without erlotinib (DMSO/Media or GSK126/Media) (light grey bar) and analyzed IncuCyte™ at day 9 and 3, respectively. (C) nuc-red PC9 cells were treated with DMSO/erlotinib or GSK126/erlotinib at 2.5 μM for 9 days and imaged. (D) nuc-red PC9 cells were treated with DMSO/erlotinib or GSK126/erlotinib at 2.5 μM for 30 days and stained with Giemsa. Erlotinib concentration 1 μM for FIG. 20A, FIG. 20B, FIG. 20C and FIG. 20D.
(D) nuc-red PC9 cells were treated with DMSO/erlotinib or […] at 0.05, 0.1, or 1.0 μM) for 30 days and stained with Giemsa. Erlotinib concentration 1 μM for FIG. 22A, FIG. 22B, FIG. 22C and FIG. 22D.
(§1) Cell lysates were prepared in Laemmli sample buffer and analyzed by immunoblotting as described previously. Cell lysates were analyzed using commercial antibodies against modifications on H3 (Active Motif and Cell Signaling Technologies).

[6] = tested on: H3K27me3 in EVSAT DTPs; assay: Histone H3K27me3 Western blot in EVSAT DTPs treated with GDC-0908; format: cell-based; conditions: GSK126 0.1, 0.5, 2.5 μM, EPZ-6438 0.05, 0.1, 0.5 μM, GDC-0908 2 μM
Protocol: GDC-0908 concentration 2 μM for FIG. 21A and FIG. 21B.
as §1

[7] = tested on: PC9 DTP; assay: HDAC biased inhibitors on PC9 DTP with erlotinib, 30 days; format: cell-based, human; conditions: G946 50 nM, G877 5 μM, erlotinib 1 μM
Excerpt: FIG. 17A, FIG. 17B and FIG. 17C | HDAC (1), 2 and 3 are involved in the establishment of drug tolerance. siRNA against HDAC2 and 3 as well as inhibitors that are HDAC1/2 or 3 biased disrupt the drug-tolerant state. (A-B) Effect of siRNA knockdown of essential components of HDAC2 and HDAC3 on PC9 parental (light grey bars: media conditions) or DTP (dark grey: erlotinib condition) cell number using 4 different specific siRNAs per gene. Data are presented along with the data for the non-targeting (NTC) and siTOX controls in similar treatment conditions. (C) Effect of (C1) G946, HDAC1/2 biased inhibitor, and (C2) G877, HDAC3 biased inhibitor. G946 and G877 were tested at concentrations 50 nM and 5 μM, respectively. PC9 cells were treated with (DTP) (DMSO/erlotinib or HDAC inhibitor/erlotinib) (C1 and C2) for 30 days or without erlotinib (parental) (DMSO/Media or HDAC inhibitor/Media) (data not shown). Erlotinib concentration 1 μM.
To further investigate the role of HDACs in the establishment of drug tolerance, siRNA against HDAC2 and 3 as well as inhibitors that are HDAC1/2 or 3 biased were tested for their ability to disrupt the drug-tolerant state.

[8] = tested on: PC9 DTP; assay: EZH2 inhibitors on PC9 DTP cell growth with erlotinib (IncuCyte, Giemsa); format: cell-based, human; conditions: erlotinib 1 μM; GSK126 0.1-2.5 μM; EPZ-6438 0.05-1.5 μM; day 9 and 30 days
Protocol: (A) Effect of siRNA knockdown of EZH2 on PC9 parental (light grey bars: media conditions) or DTP (dark grey: erlotinib condition) cell number using 8 different specific siRNAs (Dharmacon siGenome (×4) and On-Target Plus (OTP)(×4)) per gene. […] (B) Effect of GSK126 was tested at a concentration 1 μM.

[9] = tested on: EVSAT DTP; assay: EZH2 inhibitors on EVSAT DTP cell growth with PI3K inhibitor (IncuCyte); format: cell-based; conditions: GDC-0908 2 μM; GSK126 0.1, 0.5, 2.5 μM; EPZ-6438 0.05, 0.1, 0.5 μM
[10] = tested on: PC9 cells; assay: DZNep cell treatment, PC9 parental/DTP cell viability (CyQUANT Direct); format: cell-based, human
Protocol: DZNep was tested at concentrations ranging from 0.625 to 40 μM (A). PC9 cells were treated for 48 hours either with DZNep (DZNep/Media or DZNep/erlotinib) or DMSO control (DMSO/Media or DMSO/erlotinib) before treatment with (DTP) (DMSO/erlotinib or DZNep/erlotinib) or without erlotinib (parental)(DMSO/Media or DZNep/Media) for 72 hours. Cell number was determined after a 48-72 hours recovery phase in media alone. Effect of DZNep at 5 (B) and 0.625 μM (C) on PC9 parental (solid gray bars: media conditions) or DTP (diamond bars: erlotinib condition) cell number.
PC9 cells were seeded in black 96 well clear bottom plates (Coming, catalog #3603) at 1000 cells per well before to be treated with various concentration of 3-deazaneplanocin A (DZNep) from 40 down to 0.625 μM. After 48 hours of DZNep treatment the media was replaced with fresh media alone or in presence of 1 μM erlotinib. After 72 hours of incubation the media +/− erlotinib was then replaced with fresh media to enable recovery of the drug tolerant persisters (DTPs) that survived after the drug treatment. After 3 days recovery phase, final cell viability was measured using CyQUANT Direct cell proliferation assay (Molecular Probes) according to the manufacturer protocol. CyQUANT fluorescent signal was detected using a GE IN Cell Analyzer 2000 (4× objective) and quantified as number of cell per well using an image analysis algorithm developed using GE Developer Tollbox 1.9.1. Screening data were subsequently processed in Microsoft Excel. The entire Epi300 siRNA screen was run on each cell line twice in completely independent conditions.

[11] = tested on: EZH2 levels and trimethylation of lysine 27 on histone H3; conditions: cultured human acute myeloid leukemia, dose-dependent manner (0.2-1 μM); cited from earlier work

Sequence of EZH2 (Q15910 whole entry): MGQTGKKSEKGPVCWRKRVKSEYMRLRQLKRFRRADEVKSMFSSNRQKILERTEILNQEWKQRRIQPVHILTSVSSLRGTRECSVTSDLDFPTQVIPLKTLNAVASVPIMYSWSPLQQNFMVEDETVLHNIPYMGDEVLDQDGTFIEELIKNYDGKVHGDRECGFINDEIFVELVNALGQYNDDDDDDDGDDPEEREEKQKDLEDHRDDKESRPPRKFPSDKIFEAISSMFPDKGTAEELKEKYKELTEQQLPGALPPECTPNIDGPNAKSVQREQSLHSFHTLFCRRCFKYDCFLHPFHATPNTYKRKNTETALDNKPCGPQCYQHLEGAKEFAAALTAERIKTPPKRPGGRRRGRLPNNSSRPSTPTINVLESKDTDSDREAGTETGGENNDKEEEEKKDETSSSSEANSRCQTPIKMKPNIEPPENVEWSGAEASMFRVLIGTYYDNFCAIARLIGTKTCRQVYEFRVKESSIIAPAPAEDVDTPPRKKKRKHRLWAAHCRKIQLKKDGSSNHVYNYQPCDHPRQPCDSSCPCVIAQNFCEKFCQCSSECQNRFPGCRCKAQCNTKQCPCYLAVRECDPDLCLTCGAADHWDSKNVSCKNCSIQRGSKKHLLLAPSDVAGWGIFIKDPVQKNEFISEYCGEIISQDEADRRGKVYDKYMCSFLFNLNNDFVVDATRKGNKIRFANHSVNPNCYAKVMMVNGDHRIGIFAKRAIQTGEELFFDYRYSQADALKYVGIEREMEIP
Sequence of EZH2 (O75530 whole entry partner): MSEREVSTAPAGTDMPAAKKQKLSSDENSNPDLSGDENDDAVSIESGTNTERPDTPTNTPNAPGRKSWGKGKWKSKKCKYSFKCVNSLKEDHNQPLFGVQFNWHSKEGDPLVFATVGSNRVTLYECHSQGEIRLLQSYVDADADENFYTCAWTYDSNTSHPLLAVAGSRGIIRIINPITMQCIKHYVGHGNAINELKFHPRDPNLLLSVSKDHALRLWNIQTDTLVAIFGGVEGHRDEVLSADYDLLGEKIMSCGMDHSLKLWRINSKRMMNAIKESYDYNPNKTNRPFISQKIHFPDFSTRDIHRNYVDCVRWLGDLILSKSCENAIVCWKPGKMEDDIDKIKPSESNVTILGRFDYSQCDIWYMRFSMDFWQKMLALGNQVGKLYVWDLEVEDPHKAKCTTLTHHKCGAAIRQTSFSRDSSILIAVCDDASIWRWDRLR
Sequence of EZH2 (Q15022 whole entry partner): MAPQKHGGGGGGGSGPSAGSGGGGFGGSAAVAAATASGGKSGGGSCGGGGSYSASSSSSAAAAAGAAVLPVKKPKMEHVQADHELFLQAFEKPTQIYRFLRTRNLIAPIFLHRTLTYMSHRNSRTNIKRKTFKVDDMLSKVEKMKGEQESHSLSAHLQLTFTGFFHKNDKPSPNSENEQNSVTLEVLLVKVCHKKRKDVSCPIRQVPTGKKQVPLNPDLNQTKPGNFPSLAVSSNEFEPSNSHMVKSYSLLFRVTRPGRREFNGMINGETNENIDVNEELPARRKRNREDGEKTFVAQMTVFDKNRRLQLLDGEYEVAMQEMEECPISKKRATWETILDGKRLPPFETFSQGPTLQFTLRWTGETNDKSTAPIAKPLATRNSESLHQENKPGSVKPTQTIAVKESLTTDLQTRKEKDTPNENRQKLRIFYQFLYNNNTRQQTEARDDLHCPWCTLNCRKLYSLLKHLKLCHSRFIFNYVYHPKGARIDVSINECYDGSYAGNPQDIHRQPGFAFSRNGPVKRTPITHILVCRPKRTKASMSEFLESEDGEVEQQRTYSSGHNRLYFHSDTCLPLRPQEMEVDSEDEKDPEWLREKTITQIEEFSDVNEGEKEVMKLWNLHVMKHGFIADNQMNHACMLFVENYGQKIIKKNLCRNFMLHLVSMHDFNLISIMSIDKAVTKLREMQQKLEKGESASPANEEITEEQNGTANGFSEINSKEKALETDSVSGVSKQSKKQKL
Sequence of EZH2 (Q09028 whole entry partner): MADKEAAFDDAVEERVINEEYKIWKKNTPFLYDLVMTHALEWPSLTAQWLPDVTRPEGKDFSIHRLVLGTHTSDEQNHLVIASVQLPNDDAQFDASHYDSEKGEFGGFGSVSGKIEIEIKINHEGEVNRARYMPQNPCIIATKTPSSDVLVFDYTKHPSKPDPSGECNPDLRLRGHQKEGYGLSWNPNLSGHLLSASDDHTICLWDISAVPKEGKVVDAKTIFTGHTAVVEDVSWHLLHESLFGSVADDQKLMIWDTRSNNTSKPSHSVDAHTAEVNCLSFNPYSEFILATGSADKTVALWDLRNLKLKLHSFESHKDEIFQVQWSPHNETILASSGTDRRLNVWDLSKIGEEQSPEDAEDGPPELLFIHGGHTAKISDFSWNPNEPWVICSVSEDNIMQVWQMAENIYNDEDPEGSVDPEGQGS

## CCCc1cc(C)[nH]c(=O)c1CNC(=O)c1cc(-c2ccnc(N3CCN(C)CC3)c2)cc2c1cnn2C(C)C [Compound 6]
[1]
  IC50: 174 ± 84 nM

## Cc1cc(C)c(CNC(=O)c2cc(C3CC3)cc3c2cnn3C(C)C)c(=O)[nH]1 [Compound 2]
[2]
  Ki: 74 ± 11 nM
[1]
  IC50: 2510 nM

## CC(/C=C/C(=O)NO)=C\[C@@H](C)C(=O)c1ccc(N(C)C)cc1 [TSA, Trichostatin A]
[3]
  effect on radiotherapy drug tolerant cells: significant effect and eliminated radiotherapy drug tolerant cells
[4]; TSA 0.5 mg/kg
  tumor growth, TSA alone: no effect
[4]; TSA 0.5 mg/kg with erlotinib 50 then 35 mg/kg PO
  tumor relapse, combination of erlotinib+TSA: substantial delay in tumor relapse

## CCN(c1cc(-c2ccc(CN3CCOCC3)cc2)cc(C(=O)NCc2c(C)cc(C)[nH]c2=O)c1C)C1CCOCC1 [EPZ-6438, N-((4,6-dimethyl-2-oxo-1,2-dihydropyridin-3-yl)methyl)-5-(ethyl(tetrahydro-2H-pyran-4-yl)amino)-4-methyl-4′-(morpholinomethyl)-[1,1′-biphenyl]-3-carboxamide]
[5]
  histone H3K27me3 (H3K27 trimethylation) in PC9 DTPs treated with erlotinib: effective in reducing H3K27 trimethylation; also recorded: inhibited
[6]
  histone H3K27me3 (H3K27 trimethylation) in EVSAT DTPs treated with GDC-0908: effective in reducing H3K27 trimethylation; also recorded: inhibited

## Cc1ccc(C(=O)NCCCCCC(=O)Nc2ccc(F)cc2N)cc1 [Compound G877]
[7]
  cell growth of PC9 DTP with erlotinib: effective in reducing cell growth

## CC[C@H](C)n1cc(C)c2c(C(=O)NCc3c(C)cc(C)[nH]c3=O)cc(-c3ccc(N4CCNCC4)nc3)cc21 [GSK126, (S)-1-(sec-butyl)-N-((4,6-dimethyl-2-oxo-1,2-dihydropyridin-3-yl)methyl)-3-methyl-6-(6-(piperazin-1-yl)pyridin-3-yl)-1H-indole-4-carboxamide]
[5]
  histone H3K27me3 (H3K27 trimethylation) in PC9 DTPs treated with erlotinib: effective in reducing H3K27 trimethylation; also recorded: inhibited
[6]
  histone H3K27me3 (H3K27 trimethylation) in EVSAT DTPs treated with GDC-0908: effective in reducing H3K27 trimethylation; also recorded: inhibited
[8]
  cell growth of PC9 DTP with erlotinib: effective in reducing cell growth in a dose dependent manner
[9]
  cell growth of EVSAT DTP with PI3 kinase inhibitor: effective in reducing cell growth in a dose dependent manner

## CC(=O)Nc1ccc(C(=O)Nc2cc(-c3cccs3)ccc2N)cc1 [Compound G946]
[7]
  cell growth of PC9 DTP with erlotinib: effective in reducing cell growth

## CCCc1cc(C)[nH]c(=O)c1CNC(=O)c1cc(-c2ccc(N3CCN(C)CC3)nc2)cc2c1cnn2C(C)C [Compound 4]
[2]
  Ki: 0.6 ± 0.05 nM
[1]
  IC50: 79 ± 7 nM

## Cc1cc(C)c(CNC(=O)c2cc(-c3ccnc(N4CCN(C)CC4)c3)cc3c2cnn3C(C)C)c(=O)[nH]1 [Compound 5]
[2]
  Ki: 14 ± 5 nM
[1]
  IC50: 2000 nM

## Nc1nccc2c1ncn2[C@@H]1C=C(CO)[C@@H](O)[C@H]1O [DZNep, 3-deazaneplanocin A]
[10]; DZNep 0.625 uM with 1 μM erlotinib
  cell killing compared to erlotinib alone: 75.8%
[10]; DZNep 5 uM with 1 μM erlotinib
  cell killing compared to erlotinib alone: 87.5%
[10]; DZNep 0.625 and 5 uM, without erlotinib
  effect by itself on PC9 DTP cell viability: not effect
[10]; DZNep 0.625 to 10 uM, media alone
  cell viability in media alone: minimum impact
[10]; DZNep concentrations as low as 0.625 uM, 1 μM erlotinib
  PC9 DTP cell viability in combination with erlotinib: very significantly decrease
[11]
  EZH2 levels and trimethylation of lysine 27 on histone H3: deplete EZH2 levels and to inhibit trimethylation of lysine 27 on histone H3

Reference: US20160160213A1, “METHODS OF TREATING CANCER AND PREVENTING CANCER DRUG RESISTANCE” (Genentech, Inc., priority 2013, published 2016)
